Assay results taken from ChEMBL document CHEMBL3132769, “Fragment growing to retain or alter the selectivity of anchored kinase hinge-binding fragments” (Medchemcomm, 2014).

Columns and labels:
[1] = biological target: Calcium/calmodulin-dependent protein kinase type II subunit beta (Homo sapiens) (UniProt Q13554); test: Inhibition of human CAMK2 beta catalytic domain expressed in baculovirus assessed as substrate phosphorylation using fluorescence-labelled peptides as substrate at 0.06 uM after 90 mins by microfluidic peptide phosphorylation assay
Calcium/calmodulin-dependent protein kinase type II subunit beta (Homo sapiens), sequence (Q13554 whole entry, the tested form may be a part): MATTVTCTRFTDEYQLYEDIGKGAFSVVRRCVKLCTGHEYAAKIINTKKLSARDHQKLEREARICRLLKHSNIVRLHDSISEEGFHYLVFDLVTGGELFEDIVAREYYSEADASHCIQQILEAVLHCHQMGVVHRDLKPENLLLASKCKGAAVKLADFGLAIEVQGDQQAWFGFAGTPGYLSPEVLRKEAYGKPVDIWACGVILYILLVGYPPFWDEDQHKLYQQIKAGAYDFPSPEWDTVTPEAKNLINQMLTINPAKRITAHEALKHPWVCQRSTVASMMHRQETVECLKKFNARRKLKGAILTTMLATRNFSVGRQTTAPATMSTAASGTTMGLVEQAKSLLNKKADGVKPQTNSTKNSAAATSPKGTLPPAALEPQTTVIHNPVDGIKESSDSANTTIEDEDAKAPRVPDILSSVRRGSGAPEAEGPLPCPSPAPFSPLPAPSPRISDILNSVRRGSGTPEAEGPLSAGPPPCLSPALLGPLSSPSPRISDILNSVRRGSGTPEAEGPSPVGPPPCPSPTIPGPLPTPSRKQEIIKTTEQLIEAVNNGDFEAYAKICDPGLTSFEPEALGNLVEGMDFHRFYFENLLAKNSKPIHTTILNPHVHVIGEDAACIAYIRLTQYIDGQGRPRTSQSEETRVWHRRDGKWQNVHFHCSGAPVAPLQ

[2] = biological target: Serine/threonine-protein kinase pim-1 (Homo sapiens) (UniProt P11309); test: Inhibition of human full length PIM1 expressed in baculovirus assessed as substrate phosphorylation using fluorescence-labelled peptides as substrate at 70 uM after 90 mins by microfluidic peptide phosphorylation assay
Serine/threonine-protein kinase pim-1 (Homo sapiens), sequence (P11309 whole entry, looked up, the tested form may be a part): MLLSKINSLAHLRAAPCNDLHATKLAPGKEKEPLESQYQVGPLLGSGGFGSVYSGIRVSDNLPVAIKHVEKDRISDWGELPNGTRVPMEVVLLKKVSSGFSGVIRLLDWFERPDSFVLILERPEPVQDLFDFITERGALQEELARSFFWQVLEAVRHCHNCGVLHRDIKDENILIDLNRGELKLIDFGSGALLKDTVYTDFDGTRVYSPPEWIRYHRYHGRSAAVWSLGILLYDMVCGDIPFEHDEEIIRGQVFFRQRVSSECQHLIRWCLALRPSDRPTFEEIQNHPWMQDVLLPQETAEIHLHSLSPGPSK

[3] = biological target: T1, Protein kinase C epsilon type (Homo sapiens) (UniProt Q02156); test: Inhibition of human truncated PKC epsilon expressed in baculovirus assessed as substrate phosphorylation using fluorescence-labelled peptides as substrate at 70 uM after 90 mins by microfluidic peptide phosphorylation assay
T1 sequence (whole entry): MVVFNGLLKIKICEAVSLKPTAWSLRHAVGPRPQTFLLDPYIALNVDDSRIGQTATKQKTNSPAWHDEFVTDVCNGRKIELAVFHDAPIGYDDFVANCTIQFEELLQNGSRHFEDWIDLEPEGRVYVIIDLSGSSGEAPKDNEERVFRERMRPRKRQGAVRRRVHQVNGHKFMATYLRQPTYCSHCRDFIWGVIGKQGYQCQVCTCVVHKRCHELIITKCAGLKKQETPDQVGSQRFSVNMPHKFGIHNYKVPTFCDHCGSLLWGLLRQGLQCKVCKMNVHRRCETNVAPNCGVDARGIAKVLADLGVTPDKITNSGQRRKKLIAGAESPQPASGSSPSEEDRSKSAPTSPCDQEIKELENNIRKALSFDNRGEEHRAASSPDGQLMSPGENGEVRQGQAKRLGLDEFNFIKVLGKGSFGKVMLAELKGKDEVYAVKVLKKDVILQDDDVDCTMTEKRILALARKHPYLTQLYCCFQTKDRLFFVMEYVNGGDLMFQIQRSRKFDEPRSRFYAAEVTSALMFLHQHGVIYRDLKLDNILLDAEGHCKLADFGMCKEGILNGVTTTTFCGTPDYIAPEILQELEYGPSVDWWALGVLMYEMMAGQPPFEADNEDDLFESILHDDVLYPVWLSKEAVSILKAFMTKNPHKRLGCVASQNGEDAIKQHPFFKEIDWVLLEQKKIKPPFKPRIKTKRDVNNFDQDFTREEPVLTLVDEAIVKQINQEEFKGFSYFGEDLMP

[4] = biological target: RAF proto-oncogene serine/threonine-protein kinase (Homo sapiens) (UniProt P04049); test: Inhibition of human truncated c-Raf expressed in baculovirus assessed as substrate phosphorylation using fluorescence-labelled peptides as substrate at 70 uM after 90 mins by microfluidic peptide phosphorylation assay
RAF proto-oncogene serine/threonine-protein kinase (Homo sapiens), sequence (P04049 whole entry, the tested form may be a part): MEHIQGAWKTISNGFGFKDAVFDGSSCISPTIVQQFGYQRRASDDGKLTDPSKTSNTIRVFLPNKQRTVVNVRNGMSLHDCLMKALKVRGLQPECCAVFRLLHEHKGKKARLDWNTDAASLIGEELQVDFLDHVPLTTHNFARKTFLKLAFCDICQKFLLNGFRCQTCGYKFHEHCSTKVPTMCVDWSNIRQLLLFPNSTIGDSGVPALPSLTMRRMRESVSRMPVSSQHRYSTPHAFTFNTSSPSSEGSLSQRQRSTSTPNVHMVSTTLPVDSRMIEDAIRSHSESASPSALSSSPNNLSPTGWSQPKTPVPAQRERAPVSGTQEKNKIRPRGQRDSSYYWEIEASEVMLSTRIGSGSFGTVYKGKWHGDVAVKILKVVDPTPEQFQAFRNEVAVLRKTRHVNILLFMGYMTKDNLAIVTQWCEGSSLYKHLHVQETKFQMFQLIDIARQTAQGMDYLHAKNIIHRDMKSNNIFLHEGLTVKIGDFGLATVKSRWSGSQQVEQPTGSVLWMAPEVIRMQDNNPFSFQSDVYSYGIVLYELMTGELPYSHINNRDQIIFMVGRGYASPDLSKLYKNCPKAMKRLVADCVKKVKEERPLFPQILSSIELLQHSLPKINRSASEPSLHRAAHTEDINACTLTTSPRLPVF

[5] = biological target: Fibroblast growth factor receptor 3 (Homo sapiens) (UniProt P22607); test: Inhibition of human FGFR3 catalytic domain expressed in baculovirus assessed as substrate phosphorylation using fluorescence-labelled peptides as substrate at 70 uM after 90 mins by microfluidic peptide phosphorylation assay
Fibroblast growth factor receptor 3 (Homo sapiens), sequence (P22607 23-806 limits assumed): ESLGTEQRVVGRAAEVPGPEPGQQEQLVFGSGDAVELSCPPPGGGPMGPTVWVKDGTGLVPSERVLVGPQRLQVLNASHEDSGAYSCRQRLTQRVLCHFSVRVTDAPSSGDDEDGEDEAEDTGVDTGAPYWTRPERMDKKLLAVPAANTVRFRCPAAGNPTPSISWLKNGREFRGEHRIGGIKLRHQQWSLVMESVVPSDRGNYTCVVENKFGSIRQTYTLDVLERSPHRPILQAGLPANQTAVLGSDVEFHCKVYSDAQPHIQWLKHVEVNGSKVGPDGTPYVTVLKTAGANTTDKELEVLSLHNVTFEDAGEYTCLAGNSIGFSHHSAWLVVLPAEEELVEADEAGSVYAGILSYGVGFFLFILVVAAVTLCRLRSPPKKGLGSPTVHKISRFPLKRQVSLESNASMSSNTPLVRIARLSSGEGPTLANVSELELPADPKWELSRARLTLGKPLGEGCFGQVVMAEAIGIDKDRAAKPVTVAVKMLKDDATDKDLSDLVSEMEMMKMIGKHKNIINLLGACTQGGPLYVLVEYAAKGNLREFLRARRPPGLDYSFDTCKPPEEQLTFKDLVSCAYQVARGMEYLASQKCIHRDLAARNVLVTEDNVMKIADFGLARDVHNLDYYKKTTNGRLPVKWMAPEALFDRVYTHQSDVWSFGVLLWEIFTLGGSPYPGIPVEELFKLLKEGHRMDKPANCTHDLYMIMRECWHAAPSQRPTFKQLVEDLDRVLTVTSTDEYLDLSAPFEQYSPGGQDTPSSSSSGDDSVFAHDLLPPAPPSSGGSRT

[6] = biological target: Glycogen synthase kinase-3 beta (Homo sapiens) (UniProt P49841); test: Inhibition of human full length GSK-3 beta expressed in baculovirus assessed as substrate phosphorylation using fluorescence-labelled peptides as substrate at 0.2 uM after 90 mins by microfluidic peptide phosphorylation assay
Glycogen synthase kinase-3 beta (Homo sapiens), sequence (P49841 whole entry, looked up): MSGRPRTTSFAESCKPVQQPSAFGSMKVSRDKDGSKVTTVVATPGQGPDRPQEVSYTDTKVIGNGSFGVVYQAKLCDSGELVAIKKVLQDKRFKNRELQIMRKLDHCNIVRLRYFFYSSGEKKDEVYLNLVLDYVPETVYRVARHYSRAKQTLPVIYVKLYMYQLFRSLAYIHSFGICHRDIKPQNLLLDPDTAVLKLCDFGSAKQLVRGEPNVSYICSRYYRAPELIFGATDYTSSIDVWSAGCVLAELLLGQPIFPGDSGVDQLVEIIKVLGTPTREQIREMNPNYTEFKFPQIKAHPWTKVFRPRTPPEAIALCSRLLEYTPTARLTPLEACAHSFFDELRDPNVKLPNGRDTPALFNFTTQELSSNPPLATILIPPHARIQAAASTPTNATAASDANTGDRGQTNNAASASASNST

[7] = biological target: Ribosomal protein S6 kinase alpha-4 (Homo sapiens) (UniProt O75676); test: Inhibition of human full length MSK2 expressed in baculovirus assessed as substrate phosphorylation using fluorescence-labelled peptides as substrate at 420 uM after 90 mins by microfluidic peptide phosphorylation assay
Ribosomal protein S6 kinase alpha-4 (Homo sapiens), sequence (O75676 whole entry, looked up): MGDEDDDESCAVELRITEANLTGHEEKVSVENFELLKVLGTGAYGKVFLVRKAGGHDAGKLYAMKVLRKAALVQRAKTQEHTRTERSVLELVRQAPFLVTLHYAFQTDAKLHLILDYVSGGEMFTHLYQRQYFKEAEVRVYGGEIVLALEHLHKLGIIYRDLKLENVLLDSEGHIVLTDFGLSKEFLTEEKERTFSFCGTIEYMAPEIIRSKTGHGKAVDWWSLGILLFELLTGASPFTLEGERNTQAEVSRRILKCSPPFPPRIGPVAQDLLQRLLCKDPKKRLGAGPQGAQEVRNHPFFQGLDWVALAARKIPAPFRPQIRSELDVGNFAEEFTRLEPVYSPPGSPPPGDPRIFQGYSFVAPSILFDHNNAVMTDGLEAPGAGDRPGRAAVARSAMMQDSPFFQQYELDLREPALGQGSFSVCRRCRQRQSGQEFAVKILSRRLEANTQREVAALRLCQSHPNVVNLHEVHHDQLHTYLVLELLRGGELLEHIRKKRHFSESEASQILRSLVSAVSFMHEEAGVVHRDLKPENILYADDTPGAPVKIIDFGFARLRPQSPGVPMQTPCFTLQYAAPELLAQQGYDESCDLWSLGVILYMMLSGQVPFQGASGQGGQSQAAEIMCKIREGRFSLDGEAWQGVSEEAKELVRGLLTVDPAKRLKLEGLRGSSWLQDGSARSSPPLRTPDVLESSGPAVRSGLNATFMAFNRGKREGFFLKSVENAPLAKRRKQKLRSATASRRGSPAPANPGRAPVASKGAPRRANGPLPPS

[8] = biological target: T2, Aurora kinase A (Homo sapiens) (UniProt O14965); test: Inhibition of human full length AurA expressed in baculovirus assessed as substrate phosphorylation using fluorescence-labelled peptides as substrate at 1000 uM after 90 mins by microfluidic peptide phosphorylation assay
T2 sequence (whole entry): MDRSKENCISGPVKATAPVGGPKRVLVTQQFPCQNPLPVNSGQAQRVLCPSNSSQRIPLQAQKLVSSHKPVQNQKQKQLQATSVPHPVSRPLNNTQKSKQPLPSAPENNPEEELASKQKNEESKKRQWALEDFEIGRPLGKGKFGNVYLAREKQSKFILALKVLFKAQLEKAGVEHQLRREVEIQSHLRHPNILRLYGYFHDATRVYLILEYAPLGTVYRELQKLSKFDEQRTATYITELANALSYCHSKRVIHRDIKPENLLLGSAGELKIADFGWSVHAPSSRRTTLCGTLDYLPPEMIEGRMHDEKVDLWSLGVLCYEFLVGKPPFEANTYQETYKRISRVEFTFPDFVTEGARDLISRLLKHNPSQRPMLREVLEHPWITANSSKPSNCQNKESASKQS

[9] = biological target: Hepatocyte growth factor receptor (Homo sapiens) (UniProt P08581); test: Inhibition of human MET cytoplasmic domain expressed in baculovirus assessed as substrate phosphorylation using fluorescence-labelled peptides as substrate at 1000 uM after 90 mins by microfluidic peptide phosphorylation assay
Hepatocyte growth factor receptor (Homo sapiens), sequence (P08581 whole entry, the tested form may be a part): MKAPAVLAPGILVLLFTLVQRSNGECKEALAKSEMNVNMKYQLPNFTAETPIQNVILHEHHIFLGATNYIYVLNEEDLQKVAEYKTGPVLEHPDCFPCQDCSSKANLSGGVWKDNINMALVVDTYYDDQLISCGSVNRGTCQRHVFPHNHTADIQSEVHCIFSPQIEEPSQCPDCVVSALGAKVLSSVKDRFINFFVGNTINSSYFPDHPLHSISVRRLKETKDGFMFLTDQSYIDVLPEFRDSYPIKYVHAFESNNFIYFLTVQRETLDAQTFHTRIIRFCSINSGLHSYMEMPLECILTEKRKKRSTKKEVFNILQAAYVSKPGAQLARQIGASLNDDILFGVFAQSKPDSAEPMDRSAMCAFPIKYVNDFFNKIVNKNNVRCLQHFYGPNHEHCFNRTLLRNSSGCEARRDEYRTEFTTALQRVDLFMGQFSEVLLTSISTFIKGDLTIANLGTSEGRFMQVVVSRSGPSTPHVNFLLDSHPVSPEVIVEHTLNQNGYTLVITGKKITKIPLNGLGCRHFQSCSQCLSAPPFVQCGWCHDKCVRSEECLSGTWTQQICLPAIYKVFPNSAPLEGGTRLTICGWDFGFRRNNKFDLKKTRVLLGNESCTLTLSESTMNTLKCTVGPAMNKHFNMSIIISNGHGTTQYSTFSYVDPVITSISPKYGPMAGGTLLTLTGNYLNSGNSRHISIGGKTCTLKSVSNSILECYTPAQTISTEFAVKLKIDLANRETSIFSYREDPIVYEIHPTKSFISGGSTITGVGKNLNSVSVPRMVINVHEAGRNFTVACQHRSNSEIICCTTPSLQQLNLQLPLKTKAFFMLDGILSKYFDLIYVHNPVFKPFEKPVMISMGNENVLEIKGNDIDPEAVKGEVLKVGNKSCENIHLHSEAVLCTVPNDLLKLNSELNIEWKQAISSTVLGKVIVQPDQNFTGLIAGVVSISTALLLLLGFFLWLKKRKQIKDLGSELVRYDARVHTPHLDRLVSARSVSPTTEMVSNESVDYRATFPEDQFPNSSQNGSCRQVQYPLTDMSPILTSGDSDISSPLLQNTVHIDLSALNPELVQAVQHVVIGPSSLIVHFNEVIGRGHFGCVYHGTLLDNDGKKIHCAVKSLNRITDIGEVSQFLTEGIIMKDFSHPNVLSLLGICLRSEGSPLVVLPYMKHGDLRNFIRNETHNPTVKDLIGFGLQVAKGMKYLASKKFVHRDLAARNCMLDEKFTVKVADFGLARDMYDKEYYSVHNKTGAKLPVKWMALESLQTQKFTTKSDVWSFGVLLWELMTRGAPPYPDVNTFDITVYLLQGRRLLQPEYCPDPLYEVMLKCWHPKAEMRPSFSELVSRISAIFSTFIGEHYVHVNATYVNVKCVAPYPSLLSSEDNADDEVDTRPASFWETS

[10] = biological target: T3, Serine/threonine-protein kinase Sgk1 (Homo sapiens) (UniProt O00141); test: Inhibition of human truncated SGK1 expressed in baculovirus assessed as substrate phosphorylation using fluorescence-labelled peptides as substrate at 8 uM after 90 mins by microfluidic peptide phosphorylation assay
T3 sequence (whole entry): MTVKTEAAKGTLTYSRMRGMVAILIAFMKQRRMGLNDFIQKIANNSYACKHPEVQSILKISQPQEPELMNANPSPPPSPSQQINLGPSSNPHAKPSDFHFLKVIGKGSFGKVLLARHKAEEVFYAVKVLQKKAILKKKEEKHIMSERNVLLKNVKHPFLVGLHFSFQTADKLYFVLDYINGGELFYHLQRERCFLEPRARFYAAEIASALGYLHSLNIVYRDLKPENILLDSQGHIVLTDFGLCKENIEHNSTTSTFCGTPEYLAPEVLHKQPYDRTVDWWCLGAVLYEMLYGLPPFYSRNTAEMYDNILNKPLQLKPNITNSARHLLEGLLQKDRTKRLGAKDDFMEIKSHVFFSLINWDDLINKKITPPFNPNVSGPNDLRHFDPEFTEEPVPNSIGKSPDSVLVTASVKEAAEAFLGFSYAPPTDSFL

## NC1(Cc2ccc(Cl)cc2)CCN(c2ncnc3[nH]ccc23)CC1
[1]
  inhibition: 0%

## CNCc1ccc(-c2ncnc3[nH]cnc23)cc1
[2]
  inhibition: 26%
[3]
  inhibition: 44%
[4]
  inhibition: 39.5%
[5]
  inhibition: 27.5%

## Clc1ccc(C2(c3ccc(-c4ncnc5[nH]cnc45)cc3)CCNCC2)cc1
[6]
  inhibition: 3.5%

## c1nc(N2CCOCC2)c2nc[nH]c2n1
[7]
  inhibition: 76%

## c1cnc2[nH]ccc2c1
[8]
  inhibition: 88%
[9]
  inhibition: 55%

## NCC1CCN(c2ncnc3[nH]ccc23)CC1
[10]
  inhibition: 59%
